# Results reported in patent publication US20250304563A1, “ACTIVATORS OF EFFECTOR T CELLS” (Orum Therapeutics, Inc., priority 2022, published 2025).
# Key:
# [1] = biological target: Cbl-b (36-427 aa truncated form, N-terminus Avi-tag) (Homo sapiens (Human), UniProt Q13191); experiment: Cbl-b binding: TR-FRET displacement of BODIPY-FL probe
# Method: Compounds were assessed for binding activity to Cbl-b by their ability to compete with and displace a probe comprised of BODIPY-FL fluorophore conjugated to a Cbl-b inhibitor (see Example 54 in WO2020264398). In the assay, a 36-427 aa truncated form of Cbl-b with an N-terminus Avi-tag was incubated 20 mM HEPES pH 7.5, 150 mM NaCl, 0.01% Triton X-100, 0.1% BSA, 0.5 mM TCEP buffer with streptavidin-terbium (Cisbio). After one hour of incubation at room temperature, 1 uM each of fluorescent probe and compound were combined with the reaction mixture. Compounds with Cbl-b binding activity competitively displace the fluorophore tagged inhibitor thereby disrupting the FRET signal from the terbium-BODIPY-FL complex. The reaction mixtures were incubated for one additional hour at room temperature to allow for competition between inhibitor and candidate compounds to occur. The time resolved FRET (TR-FRET) signal was then read at 520/620 […] (excitation/emission) using a Spectramax M5e plate reader (Molecular Devices) to measure probe displacement. Compounds with Cbl-b binding activity had decreased FRET signal owing to disruption of the terbium-BODIPY-FL FRET complex. Standard methods in PRISM were used to calculate the compound IC50 values from the experimental data.
# [2] = test system: Human primary T cells; experiment: T cell activation: CD69 surface expression by flow cytometry; type: cell-based; conditions: fold over anti-CD3 stimulated background normalized to Compound 141A; for CD69 10 nM: 10 nM compound; for CD69 100 nM: 100 nM compound
# Method: (§1) Human primary T cells were isolated from commercially available frozen peripheral blood mononuclear cells (HemaCare Corporation) or from fresh LeukoPaks (Research Blood Components). T cells were isolated through depletion of non-T cells using negative selection kit according to the manufacturer's protocol (Miltenyi Biotec, Human Pan T Cell Isolation Kit, 130-096-535). Isolated cells were cultured overnight at 37° C. with 5% CO2 and plated at 1×10^5 cells per well in XVivo-15 serum-free media (Lonza, 04-418Q) into 96 well plates coated with anti-CD3 (OKT3) antibody (ThermoFisher, 16-0037-85). To coat the plates for T cell capture, anti-CD3 antibody was diluted in PBS at 10 μg/mL and 100 μl added to each well. Plates were incubated at 4° C. overnight or at 37° C. for 2 hours and washed once with PBS before use. Serial dilutions of each compound were added in duplicates to the T cells to assess their effect on T cell activation. T cells treated with 5 μg/mL of CD28 antibody (ThermoFisher, 16-0289-85) or T cells stimulated by CD3 only were used as a control. Plates were incubated with the Cbl-b inhibitors for 48 hours at 37° C. with 5% CO2, and supernatants were subsequently analyzed for levels of the activation induced secreted cytokines IL-2 or IFN-y (BD Biosciences CBA Flex Beads, 558269, 558270). T cells were additionally stained with anti-CD69 antibody (Invitrogen, 12-0699-42 which labels a T cell activation associated membrane protein to and surface expression was measured by flow cytometry (ThermoFisher Attune NxT).
# (§2) To control for natural inter-donor variability in T cell responses intrinsic to using primary human donor derived cells, secreted IL-2 and IFN-y measurements for each test compound were reported as the fold increase of the compound treated levels over background (antiCD3/CD28 treatment only) normalized to the values obtained for Compound 141A. Results for compound treatment-induced changes in CD69 levels are similarly reported as the fold increase due to compound treatment over anti-CD3 stimulated background only, normalized to values obtained for Compound 141A.
# Similarly, bins for normalized CD69 levels were sorted into ranges as follows: fold over background values between 1.11 and 1.6: range “X”, values between 0.81 and 1.10: range “A”; values between 0.61 and 0.80: range “B;” values between 0.30 and 0.60: range “C”.
# [3] = test system: Human primary T cells; experiment: T cell activation: secreted IFN-y; type: cell-based; conditions: 48 hours, fold over background normalized to Compound 141A; for IFN-y 1 nM: 1 nM compound; for IFN-y 10 nM: 10 nM compound; for IFN-y 100 nM: 100 nM compound
# Method: as §1, §2
# Normalized T cell IFN-y responses were sorted into ranges as follows: fold over background between 1.10 and 2.00: range “A”, values between 0.31 and 1.00: range “B;” values between 0.10 and 0.30: range “C”, and values between 0.01 and 0.09: range “D.”
# [4] = test system: Human primary T cells; experiment: T cell activation: secreted IL-2; type: cell-based; conditions: 48 hours, fold over background normalized to Compound 141A; for IL-2 1 nM: 1 nM compound; for IL-2 10 nM: 10 nM compound; for IL-2 100 nM: 100 nM compound
# Method: as §1, §2
# Normalized T cell IL-2 responses were sorted into ranges as follows: fold over background values between 1.41 and 1.8: range “X”, between 0.80 and 1.40: range “A”, values between 0.31 and 0.79: range “B” values between 0.10 and 0.30: range “C”, values between 0.01 and 0.09: range “D.”
# Sequence of Cbl-b (36-427 aa truncated form, N-terminus Avi-tag) (Q13191 36-427): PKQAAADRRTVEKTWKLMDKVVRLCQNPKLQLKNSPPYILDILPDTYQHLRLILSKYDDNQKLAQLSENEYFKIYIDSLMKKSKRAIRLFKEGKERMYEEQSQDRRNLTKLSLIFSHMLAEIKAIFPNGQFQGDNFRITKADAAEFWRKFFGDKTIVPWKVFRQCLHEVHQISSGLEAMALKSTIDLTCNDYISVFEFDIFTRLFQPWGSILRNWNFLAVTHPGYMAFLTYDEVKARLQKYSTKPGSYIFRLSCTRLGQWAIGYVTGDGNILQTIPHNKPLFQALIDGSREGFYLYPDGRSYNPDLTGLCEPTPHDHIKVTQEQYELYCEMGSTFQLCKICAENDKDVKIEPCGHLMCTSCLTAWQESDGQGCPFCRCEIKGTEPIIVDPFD
Compound,IC50 [1],CD69 10 nM [2],CD69 100 nM [2],IFN-y 1 nM [3],IFN-y 10 nM [3],IFN-y 100 nM [3],IL-2 1 nM [4],IL-2 10 nM [4],IL-2 100 nM [4]
"CC1CC(c2cc(NCCN=[N+]=[N-])nc(N3Cc4c(cc(CN5CCC[C@H](C)C5)cc4C(F)(F)F)C3=O)c2)(c2nncn2C)C1 (stereo partly drawn) [Compound 168, 2-{6-[(2-azidoethyl)amino]-4-[(1r,3s)-3-methyl-1-(4-methyl-1,2,4-triazol-3-yl)cyclobutyl]pyridin-2-yl}-6-{[(3S)-3-methylpiperidin-1-yl]methyl}-4-(trifluoromethyl)-3H-isoindol-1-one]",0.02 to 0.1 µM,–,–,–,–,–,–,–,–
"CCSc1cc(C2(Cc3nncn3C)COC2)cc(N2Cc3c(C(C)=O)cc(CN4CCC[C@H](C)C4)cc3C2=O)n1 [Compound 159, 4-acetyl-2-[6-(ethylsulfanyl)-4-{3-[(4-methyl-1,2,4-triazol-3-yl)methyl]oxetan-3-yl}pyridin-2-yl]-6-{[(3S)-3-methylpiperidin-1-yl]methyl}-3H-isoindol-1-one; trifluoroacetic acid]",0.02 to 0.1 µM,–,–,–,–,–,–,–,–
"(3S)-1-[6-(2,5-dioxopyrrol-1-yl)hexyl]-1-({2-[6-(ethylsulfanyl)-4-{3-[(4-methyl-1,2,4-triazol-3-yl)methyl]oxetan-3-yl}pyridin-2-yl]-3-oxo-7-(trifluoromethyl)-1H-isoindol-5-yl}methyl)-3-methylpiperidin-1-ium [Compound 209]",–,C (values between 0.30 and 0.60: range “C”),B (values between 0.61 and 0.80: range “B;”),C (values between 0.10 and 0.30: range “C”),C (values between 0.10 and 0.30: range “C”),B (values between 0.31 and 1.00: range “B;”),C (values between 0.10 and 0.30: range “C”),C (values between 0.10 and 0.30: range “C”),B (values between 0.31 and 0.79: range “B”)
CCOc1cc(C2(Cc3nncn3C)COC2)cc(N2Cc3c(cc(CN4CCC[C@H](C)C4)cc3C(F)(F)F)C2=O)n1 [Compound 146],–,A (values between 0.81 and 1.10: range “A”),A (values between 0.81 and 1.10: range “A”),B (values between 0.31 and 1.00: range “B;”),A (fold over background between 1.10 and 2.00: range “A”),A (fold over background between 1.10 and 2.00: range “A”),B (values between 0.31 and 0.79: range “B”),B (values between 0.31 and 0.79: range “B”),A (between 0.80 and 1.40: range “A”)
"C[C@H]1CCCN(Cc2cc3c(c(C(F)(F)F)c2)CN(c2cc(C4(Cc5nncn5C)COC4)cc(OCCO)n2)C3=O)C1 [Compound 100, 2-[6-(2-hydroxyethoxy)-4-{3-[(4-methyl-1,2,4-triazol-3-yl)methyl]oxetan-3-yl}pyridin-2-yl]-6-{[(3S)-3-methylpiperidin-1-yl]methyl}-4-(trifluoromethyl)-3H-isoindol-1-one]",–,C (values between 0.30 and 0.60: range “C”),A (values between 0.81 and 1.10: range “A”),C (values between 0.10 and 0.30: range “C”),B (values between 0.31 and 1.00: range “B;”),B (values between 0.31 and 1.00: range “B;”),C (values between 0.10 and 0.30: range “C”),B (values between 0.31 and 0.79: range “B”),B (values between 0.31 and 0.79: range “B”)
C[C@H]1CCCN(Cc2cc3c(c(C(F)(F)F)c2)CN(c2cccc([C@]4(c5nncn5C)C[C@@H](C)C4)c2)C3=O)C1 [Compound 148],–,A (values between 0.81 and 1.10: range “A”),A (values between 0.81 and 1.10: range “A”),B (values between 0.31 and 1.00: range “B;”),A (fold over background between 1.10 and 2.00: range “A”),A (fold over background between 1.10 and 2.00: range “A”),B (values between 0.31 and 0.79: range “B”),A (between 0.80 and 1.40: range “A”),A (between 0.80 and 1.40: range “A”)
CCNc1cc(C2(Cc3nncn3C)COC2)cc(N2Cc3c(cc(CN4CCC[C@H](C)C4)cc3C(F)(F)F)C2=O)n1 [Compound 147],–,A (values between 0.81 and 1.10: range “A”),A (values between 0.81 and 1.10: range “A”),B (values between 0.31 and 1.00: range “B;”),A (fold over background between 1.10 and 2.00: range “A”),A (fold over background between 1.10 and 2.00: range “A”),B (values between 0.31 and 0.79: range “B”),B (values between 0.31 and 0.79: range “B”),A (between 0.80 and 1.40: range “A”)

# Continued, in another order:
IC50 [1],Compound,CD69 10 nM [2],CD69 100 nM [2],IFN-y 1 nM [3],IFN-y 10 nM [3],IFN-y 100 nM [3],IL-2 1 nM [4],IL-2 10 nM [4],IL-2 100 nM [4]
0.00501 to 0.02 µM,"C=CCS(=O)(=O)N1CCN(c2cc(C3(Cc4nncn4C)COC3)cc(N3Cc4c(cc(CN5CCC[C@H](C)C5)cc4C(F)(F)F)C3=O)n2)CC1 [Compound 133, (S)-2-(6-(4-(allylsulfonyl)piperazin-1-yl)-4-(3-((4-methyl-4H-1,2,4-triazol-3-yl)methyl)oxetan-3-yl)pyridin-2-yl)-6-((3-methylpiperidin-1-yl)methyl)-4-(trifluoromethyl)isoindolin-1-one]",–,–,–,–,–,–,–,–
0.1 to 1 µM,"C#CCNc1cc(C2(Cc3nncn3C)COC2)cc(N2Cc3c(cc(CN4CCC[C@H](C)C4)cc3C(F)(F)F)C2=O)n1 [Compound 109, (S)-2-(4-(3-((4-methyl-4H-1,2,4-triazol-3-yl)methyl)oxetan-3-yl)-6-(prop-2-yn-1-ylamino)pyridin-2-yl)-6-((3-methylpiperidin-1-yl)methyl)-4-(trifluoromethyl)isoindolin-1-one]",–,–,–,–,–,–,–,–
0.02 to 0.1 µM,"C[C@H]1CCCN(Cc2cc3c(c(C(F)(F)F)c2)CN(c2cc(C4(Cc5nncn5C)COC4)cc(N4CCN(C(=O)CN=[N+]=[N-])CC4)n2)C3=O)C1 [Compound 132, (S)-2-(6-(4-(2-azidoacetyl)piperazin-1-yl)-4-(3-((4-methyl-4H-1,2,4-triazol-3-yl)methyl)oxetan-3-yl)pyridin-2-yl)-6-((3-methylpiperidin-1-yl)methyl)-4-(trifluoromethyl)isoindolin-1-one]",–,–,–,–,–,–,–,–
0.001 to 0.005 µM,"Cn1cnnc1CC1(c2cc(NCCC#N)nc(N3Cc4c(cc(CN5C[C@H]6CCC(O)C[C@H]6C5)cc4C(F)(F)F)C3=O)c2)COC1 (stereo partly drawn) [Compound 161, 3-{[6-(6-{[(3aR,7aS)-5-hydroxy-octahydroisoindol-2-yl]methyl}-1-oxo-4-(trifluoromethyl)-3H-isoindol-2-yl)-4-{3-[(4-methyl-1,2,4-triazol-3-yl)methyl]oxetan-3-yl}pyridin-2-yl]amino}propanenitrile; trifluoroacetic acid]",–,–,–,–,–,–,–,–
0.00501 to 0.02 µM,"CNCC(=O)Nc1cc(C2(Cc3nncn3C)COC2)cc(N2Cc3c(cc(CN4CCC[C@H](C)C4)cc3C(F)(F)F)C2=O)n1 [Compound 101, N-(4-{3-[(4-methyl-1,2,4-triazol-3-yl)methyl]oxetan-3-yl}-6-(6-{[(3S)-3-methylpiperidin-1-yl]methyl}-1-oxo-4-(trifluoromethyl)-3H-isoindol-2-yl)pyridin-2-yl)-2-(methylamino)acetamide; formic acid]",–,–,–,–,–,–,–,–
